# Source: publication PMC8704315, “Lichen-Derived Compounds and Extracts as Biologically Active Substances with Anticancer and Neuroprotective Properties” (Pharmaceuticals, 2021)
# Tests used:
# [1] = molecular target: T1, indoleamine 2,3-dioxygenases 2 (IDO2) (Homo sapiens, UniProt Q6ZQW0); assay: Universal IDO1/IDO2/TDO Inhibitor Screening Assay Kit, IDO2; assay type: biochemical; conditions: read-out: Inhibition (%) IDO2
# T1 construct: purchased BPS Bioscience, Inc. (San Diego, CA, USA)
# T1 sequence (Q6ZQW0 1-407): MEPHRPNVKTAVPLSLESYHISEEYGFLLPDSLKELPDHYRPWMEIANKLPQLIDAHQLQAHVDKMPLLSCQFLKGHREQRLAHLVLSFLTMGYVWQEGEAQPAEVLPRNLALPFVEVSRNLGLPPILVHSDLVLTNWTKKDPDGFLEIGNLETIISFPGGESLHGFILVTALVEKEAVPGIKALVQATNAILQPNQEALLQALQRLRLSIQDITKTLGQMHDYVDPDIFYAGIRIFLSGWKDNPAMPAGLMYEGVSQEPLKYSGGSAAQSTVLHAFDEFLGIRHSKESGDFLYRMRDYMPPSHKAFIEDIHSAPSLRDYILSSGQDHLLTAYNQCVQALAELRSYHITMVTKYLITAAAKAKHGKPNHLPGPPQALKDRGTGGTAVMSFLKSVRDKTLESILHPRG
# Protocol: (§1) This colorimetric assay is based on the measurement of the ability of IDO1, IDO2 and TDO to convert L-tryptophan into N-formylkynurenine (NFK). The experiments were performed according to the manufacturer’s guidelines. The final concentration of the compounds and extracts in the reaction mixture was 100 µg/mL. The amount of NFK was measured spectrophotometrically at 320 nm using an Epoch BioTek microplate reader (BioTek Instruments, Inc., Winooski, VT, USA). The samples were run in triplicate and the results were expressed as mean ± SEM.
# [2] = molecular target: T2, tryptophan 2,3-dioxygenase (TDO) (Homo sapiens, UniProt P48775); assay: Universal IDO1/IDO2/TDO Inhibitor Screening Assay Kit, TDO; assay type: biochemical; conditions: read-out: Inhibition (%) TDO
# T2 construct: purchased BPS Bioscience, Inc. (San Diego, CA, USA)
# T2 sequence (P48775 whole entry, species assumed): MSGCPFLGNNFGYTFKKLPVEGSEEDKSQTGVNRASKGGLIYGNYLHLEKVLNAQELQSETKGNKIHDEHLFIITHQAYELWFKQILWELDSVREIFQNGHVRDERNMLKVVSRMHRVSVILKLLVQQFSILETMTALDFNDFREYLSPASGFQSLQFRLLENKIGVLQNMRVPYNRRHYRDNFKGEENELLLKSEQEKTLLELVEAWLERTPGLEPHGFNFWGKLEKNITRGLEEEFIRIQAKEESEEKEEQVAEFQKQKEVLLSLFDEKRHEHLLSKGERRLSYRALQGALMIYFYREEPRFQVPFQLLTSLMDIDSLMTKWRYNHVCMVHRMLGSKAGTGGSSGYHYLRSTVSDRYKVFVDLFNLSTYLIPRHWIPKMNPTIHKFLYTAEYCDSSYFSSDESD
# Protocol: as §1
smiles,measurement,setting,value
"NS(=O)(=O)NCCNc1nonc1C(=NO)Nc1ccc(F)c(Br)c1 [epacadostat, reference compound]",inhibition at 100 µg/mL,[1],< 10%
same,inhibition at 100 µg/mL,[2],< 10%
